In PubChem BioAssay (NCI):
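Compound exposure: 48 hours, 5 concentrations, 96-well plates. GI50 marks 50% less growth. At the TGI there is no net growth.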

How the values were obtained:
Assay in all cases: inhibition of tumour cell growth, NCI panel, 48 h
[1] = system: RPMI-8226 leukemia
[2] = system: SF-268 CNS
[3] = system: NCI-H522 lung
[4] = system: OVCAR-8 ovarian
[5] = system: HCC-2998 colon
[6] = system: SK-MEL-2 melanoma
[7] = system: OVCAR-4 ovarian
[8] = system: HL-60(TB) leukemia
[9] = system: PC-3 prostate
[10] = system: HCT-15 colon

Row | Structure (SMILES) | TGI [1] | TGI [2] | TGI [3] | TGI [4] | TGI [5] | TGI [6] | TGI [7] | TGI [8] | GI50 [9] | TGI [9] | GI50 [10] | TGI [10] | GI50 [1] | GI50 [2] | GI50 [3] | GI50 [4] | GI50 [6] | GI50 [7] | GI50 [8] | GI50 [5]
1 | Cc1nc(Nc2ccc(Cl)cc2)sc1C(=O)NNc1ccc([N+](=O)[O-])cc1[N+](=O)[O-] | 51.8 µM | 38.8 µM | 29.6 µM | 46.5 µM | 30 µM | 32.7 µM | 35.3 µM | 43.5 µM | – | – | – | – | – | – | – | – | – | – | – | –
2 | CN(C)CCCNC(=O)c1cc(NC(=O)c2cc(NC(=O)CCc3c[nH]c4ccccc34)cn2C)cn1C | > 100 µM | > 100 µM | > 100 µM | > 100 µM | – | > 100 µM | > 100 µM | > 100 µM | > 100 µM | > 100 µM | > 100 µM | > 100 µM | > 100 µM | > 100 µM | > 100 µM | > 100 µM | > 100 µM | > 100 µM | > 100 µM | –
3 | Cc1[nH]c2ccccc2c1C(=O)CC1(O)C(=O)Nc2ccccc21 (stereo not drawn) | > 100 µM | > 100 µM | – | – | > 100 µM | > 100 µM | > 100 µM | > 100 µM | – | – | – | > 100 µM | – | – | – | – | – | – | – | –
4 | c1cc(N(CCn2cccn2)CCn2cccn2)cc(N(CCn2cccn2)CCn2cccn2)c1 | > 100 µM | > 100 µM | > 100 µM | > 100 µM | > 100 µM | > 100 µM | > 100 µM | > 100 µM | – | – | – | > 100 µM | – | – | – | – | – | – | – | –
5 | CC(=O)[CH-]C(C)=O.CC(=O)[CH-]C(C)=O.[CH2-]CCC.[CH2-]CCC.[Sn+4] | – | 1.2 µM | 0.122 µM | 2.05 µM | – | 1.22 µM | 2.61 µM | 2.73 µM | – | – | 0.68 µM | 1.99 µM | – | 0.291 µM | 0.0586 µM | 0.788 µM | 0.309 µM | 1.31 µM | 0.347 µM | –
6 | CC(C)CC(NC(=O)c1cccc(O)c1O)C(=O)NCc1cc(CNC(=O)C(CC(C)C)NC(=O)c2cccc(O)c2O)cc(CNC(=O)C(CC(C)C)NC(=O)c2cccc(O)c2O)c1 (stereo not drawn) | 21.8 µM | > 100 µM | 16.8 µM | > 100 µM | 20.6 µM | 29 µM | 56.5 µM | 19.2 µM | – | – | – | > 100 µM | – | – | – | – | – | – | – | –
7 | CC(C)=CC(=O)C/C(=N\NC(N)=S)C(=O)Nc1ccc(Cl)cc1 | > 100 µM | > 100 µM | – | > 100 µM | > 100 µM | > 100 µM | > 100 µM | > 100 µM | – | – | – | > 100 µM | – | – | – | – | – | – | – | –
8 | CC(C)(C)C(=O)c1c(C(F)(F)F)n([O-])c2ccccc2[n+]1=O | 0.246 µM | 1.75 µM | 0.924 µM | 1.35 µM | – | 3.23 µM | 2.43 µM | 1.08 µM | 0.817 µM | 2.38 µM | 0.365 µM | 0.914 µM | 0.0234 µM | 0.549 µM | 0.407 µM | 0.254 µM | – | 0.6 µM | 0.204 µM | –
9 | COc1ccc(S(=O)(=O)N2CC(C)(C)CN(S(=O)(=O)c3ccc(OC)cc3)C2C(=O)NO)cc1 | > 20 µM | > 20 µM | > 20 µM | > 20 µM | – | > 20 µM | > 20 µM | > 20 µM | > 20 µM | > 20 µM | > 20 µM | > 20 µM | 6.37 µM | > 20 µM | > 20 µM | > 20 µM | > 20 µM | > 20 µM | > 10.6 µM | –
10 | [Cl-].[O-]/N=C(\c1ccccc1)c1ccccn1.[O-]/N=C(\c1ccccc1)c1ccccn1.[O-]/N=C(\c1ccccc1)c1ccccn1.[Sm+3] | > 100 µM | 87.3 µM | 75.3 µM | > 100 µM | > 100 µM | 52.8 µM | > 100 µM | 62.1 µM | – | – | 32.4 µM | > 100 µM | 47.4 µM | 30 µM | 24.6 µM | 29.8 µM | 22 µM | 43.3 µM | 20.1 µM | 25.7 µM
11 | CCc1cc(Cc2cc(Cl)c(NC(=O)C(=O)C3NC(=O)NC3=O)c(CC)c2)cc(Cl)c1NC(=O)C(=O)C1NC(=O)NC1=O (stereo not drawn) | > 100 µM | > 100 µM | – | 58.6 µM | > 100 µM | > 100 µM | > 100 µM | > 100 µM | – | – | – | 35.6 µM | – | – | – | – | – | – | – | –
12 | CN(C)CC(C)(C)/C(=N\Nc1ccccc1)c1ccccc1 | > 100 µM | > 100 µM | > 100 µM | > 100 µM | – | > 100 µM | > 100 µM | 50.6 µM | – | – | – | 53.8 µM | – | – | – | – | – | – | – | –
13 | O=C(O)CCCCCCC[C@H]1S[C@H]1CCCCCCO | > 100 µM | > 100 µM | – | > 100 µM | > 100 µM | > 100 µM | > 100 µM | > 100 µM | – | – | – | > 100 µM | – | – | – | – | – | – | – | –
14 | C=C(COC(C)=O)CC(OC(C)=O)c1ccccc1 (stereo not drawn) | > 100 µM | > 100 µM | > 100 µM | > 100 µM | > 100 µM | > 100 µM | > 100 µM | > 100 µM | – | – | – | > 100 µM | – | – | – | – | – | – | – | –
15 | CN1CCCC2(CCCc3ccccc32)C1 (stereo not drawn) | > 100 µM | > 100 µM | > 100 µM | > 100 µM | > 100 µM | > 100 µM | > 100 µM | > 100 µM | – | – | – | > 100 µM | – | – | – | – | – | – | – | –
16 | Cc1cc2c(ccc3c(C)cc(=O)oc32)o1 | > 100 µM | > 100 µM | > 100 µM | > 100 µM | > 100 µM | > 100 µM | > 100 µM | – | – | – | – | > 100 µM | – | – | – | – | – | – | – | –
17 | Nc1ccc(C2=NN(c3ccccc3)C(c3ccc(Cl)cc3)C2)cc1 (stereo not drawn) | 4.88 µM | 19.8 µM | 3.27 µM | 13.2 µM | 3.29 µM | – | 45.5 µM | 22.8 µM | – | – | 2.62 µM | 7.9 µM | 1.86 µM | 4.22 µM | 1.51 µM | 3.15 µM | – | 4.84 µM | 3.71 µM | 1.86 µM
18 | C=C1C(=O)O[C@@H]2C[C@@H](C)[C@@H]3C=CC(=O)[C@@]3(C)[C@@H](OC(=O)CC(=O)O[C@H]3[C@@H]4C(=C)C(=O)O[C@@H]4C[C@@H](C)[C@@H]4C=CC(=O)[C@]43C)[C@H]12 | 0.0866 µM | 0.374 µM | – | 0.0591 µM | 0.303 µM | 0.224 µM | 0.14 µM | – | – | 0.436 µM | – | 0.0773 µM | – | – | – | – | – | – | – | –
19 | Cc1ccc(S(=O)(=O)NC(=O)C2C(=O)CC3(CCCCC3)CC2=O)cc1 | 51.5 µM | > 100 µM | 59.9 µM | 87.1 µM | – | – | > 100 µM | 65.8 µM | – | 81.3 µM | – | 62.4 µM | – | – | – | – | – | – | – | –
